Assay results from patent publication US11826429B2, “Pharmaceutical composition comprising brinzolamide” (SENTISS PHARMA PRIVATE LIMITED, priority 2014, dated 2023).
Converted amounts (≈) assume the structure as drawn.

Tests used:
[1] = pH 6.25; cited from earlier work
[2] = Solubility studies (supernatant filtered through 0.45 syringe filter and analysed); type: physicochemical; conditions: for Solubility % w/v, No Further addition to the ingredients of Column 2: autoclaved 121° C./30 min, cooled; for Solubility % w/v, Polysorbate 80 (1%) in addition to the composition of Column 2: plus Polysorbate 80 (1%)
Description: (§1) Purified water was taken in Schott bottle. Brinzolamide was added with continuous stirring. After 30 min its pH was adjusted to 6. It was stirred for 24 hours. After which, the supernatant was filtered with 0.45 µm syringe filter and then its solubility was determined.
as §1, with “6 and was autoclaved at 121° C./30 min. After autoclaving the sample was cooled to room temperature.” for “6.”
Purified water is taken in Schott bottle. Soluplus® is added to it while stirring for 10-15 min. Polysorbate 80 is added to it while stirring for 10-20 min. After it has dissolved completely Brinzolamide is added with continuous stirring. After 30 min pH is checked and adjusted to 6 with 0.1 N NaOH. It is autoclaved at 121° C./30 min. After autoclaving the formulation is cooled to room temperature with stirring.
In order to determine the solubility the sample was centrifuged at 3500 rpm for 5 min followed by filtration through 0.45 µm syringe filter and analysis.

CCN[C@H]1CN(CCCOC)S(=O)(=O)c2sc(S(N)(=O)=O)cc21 [brinzolamide, (R)-(+)-4-ethylamino-2-(3-methoxypropyl)-3,4-dihydro-2H-thieno[3,2-e]-1,2-thiazine-6-sulfonamide-1,1-dioxide]
Solubility as per literature [1]: 0.059 % w/v | Solubility when API is autoclaved and cooled ([2]; pH 6.0): 0.082% | Solubility % w/v, No Further addition to the ingredients of Column 2 ([2]; pH 6): 0.085 % w/v | Solubility % w/v, No Further addition to the ingredients of Column 2 ([2]; pH 6, listed as Autoclaved API): 0.0822 % w/v | Solubility % w/v, PEG 400 (5%) in addition to the composition of Column 2 ([2]; pH 6, autoclaved, plus PEG 400 (5%)): 0.0668 % w/v | Solubility % w/v, Polysorbate 80 (1%) in addition to the composition of Column 2 ([2]; pH 6, autoclaved): 0.2 % w/v | Solubility % w/v, Polysorbate 80 (1%) in addition to the composition of Column 2 ([2]; pH 6, autoclaved, listed as Autoclaved API): 0.2089 % w/v | solubility thermodynamic at 24 h ([2]; purified water, pH adjusted to 6, aqueous buffer, thermodynamic from solid, pH 6.0, not autoclaved, stirred 24 hours, read-out: Solubility determined in the lab): 545 µg/mL (≈ 1420 µM)
